Values belong to the molecule of their own block, whether it stands above or below them.
Tests used:
[1] = Oral bioavailability in dog; type: ADME, organism-based, Canis lupus familiaris; conditions: in vivo
[2] = Oral bioavailability in monkey; type: ADME, organism-based, Macaca mulatta; conditions: rhesus monkey, in vivo
in vitro = conditions: PAMPA, pH 6.5
[3] = Bioavailability in dog at […], po by cassette assay; type: ADME, organism-based, Canis lupus familiaris; conditions: in vivo
[4] = Cmax in dog at […], po by cassette assay; type: ADME, organism-based, Canis lupus familiaris; design: route oral; conditions: in vivo
[5] = AUC (0 to 24 hrs) in dog at […], po by cassette assay; type: ADME, organism-based, Canis lupus familiaris; design: time < 24 hr, route oral; conditions: plasma
in vivo [6] = conditions: dog, iv, 1 mg/mL
in vivo [7] = conditions: dog, iv, 1 mg/mL; remark: listed apart in the source
Rhesus monkey [8] = test: (§1) Bioavailability in monkey at 0.32 mg/kg, po by cassette assay; type: ADME, organism-based, Macaca mulatta; conditions: in vivo
[9] = Terminal half life in monkey at 0.186 mg/kg, iv by cassette assay; type: ADME, organism-based, Macaca mulatta; design: dose 0.186 mg/kg, route intravenous; conditions: rhesus monkey, in vivo, read-out: beta t1/2 (converted)
[10] = Bioavailability in dog at 0.2 mg/kg, po by cassette assay; type: ADME, organism-based, Canis lupus familiaris; conditions: in vivo
[11] = Cmax in rat at 0.32 mg/kg, po by cassette assay; type: ADME, organism-based; design: dose 0.32 mg/kg, route oral; conditions: in vivo
[12] = AUC (0 to 24 hrs) in rat at 0.32 mg/kg, po by cassette assay; type: ADME, organism-based; design: time < 24 hr, dose 0.32 mg/kg, route oral; conditions: plasma
[13] = Cmax in monkey at 0.32 mg/kg, po by cassette assay; type: ADME, organism-based, Macaca mulatta; design: dose 0.32 mg/kg, route oral; conditions: rhesus monkey, in vivo
Rhesus monkey [14] = test: (§2) AUC (0 to 24 hrs) in monkey at 0.32 mg/kg, po by cassette assay; type: ADME, organism-based, Macaca mulatta, Plasma; design: time < 24 hr, dose 0.32 mg/kg, route oral; conditions: in vivo, 24 h
[15] = Cmax in dog at 2.0 mg/kg, po by cassette assay; type: ADME, organism-based, Canis lupus familiaris; design: dose 2 mg/kg, route oral; conditions: in vivo
[16] = AUC (0 to 24 hrs) in dog at 2.0 mg/kg, po by cassette assay; type: ADME, organism-based, Canis lupus familiaris; design: time < 24 hr, dose 2 mg/kg, route oral; conditions: plasma
[17] = Intrinsic clearance in monkey liver microsome; type: ADME, Macaca mulatta; conditions: rhesus monkey, liver microsomes
[18] = Intrinsic clearance in human liver microsome; type: ADME; conditions: liver microsomes
[19] = Terminal half life in dog at 0.1 mg/kg, iv by cassette assay; type: ADME, organism-based, Canis lupus familiaris; design: dose 0.1 mg/kg, route intravenous; conditions: in vivo, read-out: beta t1/2 (converted)
[20] = Total clearance in dog at 0.1 mg/kg, iv by cassette assay; type: ADME, organism-based, Canis lupus familiaris; design: dose 0.1 mg/kg, route intravenous; conditions: in vivo
[21] = Terminal half life in rat at 0.32 mg/kg, iv by cassette assay; type: ADME, organism-based; design: dose 0.32 mg/kg, route intravenous; conditions: in vivo, read-out: beta t1/2 (converted)
[22] = Total clearance in rat at 0.32 mg/kg, iv by cassette assay; type: ADME, organism-based; design: dose 0.32 mg/kg, route intravenous; conditions: in vivo
[23] = Bioavailability in rat at 0.32 mg/kg, po by cassette assay; type: ADME, organism-based; conditions: in vivo
[24] = as §1; type: ADME, organism-based, Macaca mulatta; conditions: rhesus monkey, in vivo
[25] = Total clearance in monkey at 0.32 mg/kg, iv by cassette assay; type: ADME, organism-based, Macaca mulatta; design: dose 0.32 mg/kg, route intravenous; conditions: rhesus monkey, in vivo
[26] = as §2; type: ADME, organism-based, Macaca mulatta, Plasma; design: time < 24 hr, dose 0.32 mg/kg, route oral; conditions: rhesus monkey, plasma
[27] = Intrinsic clearance in dog liver microsome; type: ADME, Canis lupus familiaris; conditions: liver microsomes
[28] = Cmax in dog at 0.1 mg/kg, po by cassette assay; type: ADME, organism-based, Canis lupus familiaris; design: dose 0.1 mg/kg, route oral; conditions: in vivo
[29] = AUC (0 to 24 hrs) in dog at 0.1 mg/kg, po by cassette assay; type: ADME, organism-based, Canis lupus familiaris; design: time < 24 hr, dose 0.1 mg/kg, route oral; conditions: plasma
[30] = Bioavailability in dog at 0.1 mg/kg, po by cassette assay; type: ADME, organism-based, Canis lupus familiaris; conditions: in vivo
[31] = Terminal half life in monkey at 0.32 mg/kg, iv by cassette assay; type: ADME, organism-based, Macaca mulatta; design: dose 0.32 mg/kg, route intravenous; conditions: rhesus monkey, in vivo, read-out: beta t1/2 (converted)
in vivo [32] = conditions: dog, po, 1 mg/mL
in vivo [33] = conditions: dog, po, 1 mg/mL; remark: listed apart in the source
in vivo [34] = conditions: dog, plasma, po, 1 mg/mL
[35] = Total clearance in dog at 0.83 mg/kg, iv by cassette assay; type: ADME, organism-based, Canis lupus familiaris; design: dose 0.83 mg/kg, route intravenous; conditions: in vivo
[36] = Bioavailability in dog at 3.2 mg/kg, po by cassette assay; type: ADME, organism-based, Canis lupus familiaris; conditions: in vivo
[37] = Terminal half life in monkey at 0.83 mg/kg, iv by cassette assay; type: ADME, organism-based, Macaca mulatta; design: dose 0.83 mg/kg, route intravenous; conditions: rhesus monkey, in vivo, read-out: beta t1/2 (converted)
[38] = Total clearance in monkey at 0.83 mg/kg, iv by cassette assay; type: ADME, organism-based, Macaca mulatta; design: dose 0.83 mg/kg, route intravenous; conditions: rhesus monkey, in vivo
[39] = Bioavailability in monkey at 1.0 mg/kg, po by cassette assay; type: ADME, organism-based, Macaca mulatta; conditions: rhesus monkey, in vivo
[40] = Terminal half life in dog at 0.83 mg/kg, iv by cassette assay; type: ADME, organism-based, Canis lupus familiaris; design: dose 0.83 mg/kg, route intravenous; conditions: in vivo, read-out: beta t1/2 (converted)
[41] = Cmax in rat at 1.0 mg/kg, po by cassette assay; type: ADME, organism-based; design: dose 1 mg/kg, route oral; conditions: in vivo
[42] = AUC (0 to 24 hrs) in rat at 1.0 mg/kg, po by cassette assay; type: ADME, organism-based; design: time < 24 hr, dose 1 mg/kg, route oral; conditions: plasma
[43] = Cmax in dog at 3.2 mg/kg, po by cassette assay; type: ADME, organism-based, Canis lupus familiaris; design: dose 3.2 mg/kg, route oral; conditions: in vivo
[44] = AUC (0 to 24 hrs) in dog at 3.2 mg/kg, po by cassette assay; type: ADME, organism-based, Canis lupus familiaris; design: time < 24 hr, dose 3.2 mg/kg, route oral; conditions: plasma
[45] = Cmax in monkey at 1.0 mg/kg, po by cassette assay; type: ADME, organism-based, Macaca mulatta; design: dose 1 mg/kg, route oral; conditions: rhesus monkey, in vivo
[46] = AUC (0 to 24 hrs) in monkey at 1.0 mg/kg, po by cassette assay; type: ADME, organism-based, Macaca mulatta; design: time < 24 hr, dose 1 mg/kg, route oral; conditions: rhesus monkey, plasma
[47] = Cmax […] at 1.0 mg/kg, po by cassette assay; type: ADME, organism-based; design: dose 1 mg/kg, route oral; conditions: in vivo
[48] = AUC (0 to 24 hrs) […] at 1.0 mg/kg, po by cassette assay; type: ADME, organism-based; design: time < 24 hr, dose 1 mg/kg, route oral; conditions: plasma
[49] = Intrinsic clearance in rat liver microsome; type: ADME; conditions: liver microsomes
[50] = Terminal half life in rat at 0.83 mg/kg, iv by cassette assay; type: ADME, organism-based; design: dose 0.83 mg/kg, route intravenous; conditions: in vivo, read-out: beta t1/2 (converted)
[51] = Total clearance in rat at 0.83 mg/kg, iv by cassette assay; type: ADME, organism-based; design: dose 0.83 mg/kg, route intravenous; conditions: in vivo
[52] = Bioavailability in rat at 1.0 mg/kg, po by cassette assay; type: ADME, organism-based; conditions: in vivo

SMILES: O=S(=O)(Nc1ccc(CCNC[C@H](O)c2cccnc2)cc1)c1ccc(-c2nc(-c3ccc(C(F)(F)F)cc3)cs2)cc1
- bioavailability [1]: 27%
- bioavailability [2]: 4%

SMILES: O=C(O)c1ccc(-c2ccc(CCNC[C@H](O)c3cccc(Cl)c3)cc2)cc1OC1CCCCC1
- Papp (in vitro): > 30 ×10⁻⁶ cm/s

SMILES: CC(C)Cc1cc(-c2ccc(CCNC[C@H](O)c3ccccc3)cc2)ccc1C(=O)O
- Papp (in vitro): 26 ×10⁻⁶ cm/s

SMILES: CC(C)Sc1cc(-c2ccc(CCNC[C@H](O)c3ccccc3)cc2)ccc1C(=O)O
- Papp (in vitro): 10 ×10⁻⁶ cm/s

SMILES: CC(C)Oc1cc(-c2ccc(CCNC[C@H](O)c3ccccc3)cc2)ccc1C(=O)O
- F (Rhesus monkey [8]): 62%
- half-life [9]: 22.2 h
- bioavailability [10]: 68%
- Cmax [11]: 94.7 ng/mL
- AUC(0-t) at 24 h [12]: 565 ng·h/mL
- Cmax [13]: 185 ng/mL
- AUC (Rhesus monkey [14]): 209 ng·h/mL
- Cmax [15]: 25 ng/mL
- AUC(0-t) at 24 h [16]: 438 ng·h/mL
- CLint scaled [17]: < 1 mL/min/kg
- CLint scaled [18]: < 1 mL/min/kg
- half-life [19]: 14.5 h
- clearance [20]: 4.8 mL/min/kg
- half-life [21]: 9.5 h
- clearance [22]: 7.5 mL/min/kg
- bioavailability [23]: 80%
- Papp (in vitro): 18 ×10⁻⁶ cm/s

SMILES: O=C(O)c1ccc(-c2ccc(CCNC[C@H](O)c3ccccc3)cc2)cc1OC1CCCCC1
- Papp (in vitro): > 30 ×10⁻⁶ cm/s

SMILES: CCOC(=O)COc1ccc2c(c1)C[C@@H](NC[C@H](O)c1cccc(Cl)c1)CCC2
- clearance [35]: 3.7 mL/min/kg
- bioavailability [36]: 73%
- half-life [37]: 2.28 h
- clearance [38]: 11.8 mL/min/kg
- bioavailability [39]: 35%
- half-life [40]: 1.63 h
- Cmax [41]: 38 ng/mL
- AUC(0-t) at 24 h [42]: 83 ng·h/mL
- Cmax [43]: 2070 ng/mL
- AUC(0-t) at 24 h [44]: 10600 ng·h/mL
- Cmax [45]: 184 ng/mL
- AUC(0-t) at 24 h [46]: 398 ng·h/mL
- Cmax [47]: 1340 ng/mL
- AUC(0-t) at 24 h [48]: 4100 ng·h/mL
- CLint scaled [49]: 35.4 mL/min/kg
- CLint scaled [27]: 35.4 mL/min/kg
- CLint scaled [18]: 18.2 mL/min/kg
- half-life [50]: 0.3 h
- clearance [51]: 47.9 mL/min/kg
- bioavailability [52]: 29%

SMILES: O=C(O)c1cccc(-c2cccc(NCCNC[C@H](O)c3cccc(Cl)c3)c2)c1 [SOLABEGRON]
- bioavailability [2]: 46%

Further lines, results first:

- bioavailability [3]: > 95%
- Cmax [4]: 111 ng/mL
- AUC(0-t) at 24 h [5]: 1980 ng·h/mL
- clearance (in vivo [6]): 4 mL/min/kg
- half-life (in vivo [7]): 12.3 h
SMILES: O=C(O)c1ccc(-c2ccc(CCNC[C@H](O)c3cccc(Cl)c3)cc2)cc1

- Papp (in vitro): 3.3 ×10⁻⁶ cm/s
SMILES: COc1cc(-c2ccc(CCNC[C@H](O)c3cccc(Cl)c3)cc2)ccc1C(=O)O

- bioavailability [24]: 83%
- clearance [25]: 0.9 mL/min/kg
- Cmax [11]: 146 ng/mL
- AUC(0-t) at 24 h [12]: 700 ng·h/mL
- Cmax [13]: 171 ng/mL
- AUC(0-t) at 24 h [26]: 4980 ng·h/mL
- CLint scaled [27]: < 1 mL/min/kg
- CLint scaled [18]: < 1 mL/min/kg
- Cmax [28]: 13 ng/mL
- AUC(0-t) at 24 h [29]: 149 ng·h/mL
- half-life [19]: 9.9 h
- clearance [20]: 4.9 mL/min/kg
- bioavailability [30]: 45%
- half-life [21]: 4.8 h
- clearance [22]: 4.4 mL/min/kg
- bioavailability [23]: 61%
- half-life [31]: 18.6 h
- Papp (in vitro): > 30 ×10⁻⁶ cm/s
SMILES: CC(C)Oc1cc(-c2ccc(CCNC[C@H](O)c3cccc(Cl)c3)cc2)ccc1C(=O)O

- clearance (in vivo [6]): 4.1 mL/min/kg
- bioavailability (in vivo [32]): 40%
- Cmax (in vivo [33]): 236 ng/mL
- AUC(0-t) at 24 h (in vivo [34]): 2470 ng·h/mL
- half-life (in vivo [7]): 6.2 h
SMILES: O=C(O)c1ccc(Oc2ccc(CCNC[C@H](O)c3cccc(Cl)c3)cc2)cc1

— ChEMBL document CHEMBL1142325, “Discovery of a novel series of biphenyl benzoic acid derivatives as potent and selective human beta3-adrenergic receptor agonists with good oral bioavailability. Part I” (J Med Chem, 2008)
